US12083227B2, “Solid pharmaceutical formulations for treating endometriosis, uterine fibroids, polycystic ovary syndrome or adenomyosis” (priority 2017, dated 2024)

Tests used:
[1] = drug interaction studies: co-administered drug in the presence of elagolix
Experimental: Drug interaction studies were performed with elagolix and other drugs that are likely to be co-administered and with drugs commonly used as probes for pharmacokinetic interactions.

[2] = gel formation and pH of elagolix sodium solution; type: physicochemical
Experimental: 1.23 gram of elagolix sodium was added to 2 mL purified water in a test tube. […] To facilitate continued dissolution, the solution was stirred and the gel was dispersed continuously using a spatula. The solution pH was measured with undissolved solid present using a calibrated pH meter.

[3] = Ethinyl estradiol 35 mcg and triphasic norgestimate 0.18/0.215/0.25 mg once daily, elagolix 150 mg once daily, N 21
[4] = 0.5 mg single dose, elagolix 200 mg twice daily × 10 days, N 11
[5] = 2 mg single dose, elagolix 150 mg once daily × 13 days, N 11
[6] = 2 mg single dose, elagolix 300 mg twice daily × 11 days, N 20
[7] = 0.35 mg once daily × 112 days, elagolix 150 mg once daily × 56 days, N 32
[8] = 20 mg once daily, elagolix 300 mg twice daily × 7 days, N 10

SMILES: C#C[C@]1(O)CC[C@H]2[C@@H]3CCC4=CC(=NO)CC[C@@H]4[C@H]3CC[C@@]21CC (mixture of isomers) [Norelgestromin]
- AUC Ratio (with elagolix vs. medication alone) [1, 3]: 0.85
- Cmax Ratio (with elagolix vs. medication alone) [1, 3]: 0.87

SMILES: C#CC1(O)CC[C@H]2[C@@H]3CCC4=CC(=O)CC[C@@H]4[C@H]3CC[C@@]21CC (mixture of isomers) [Norgestrel]
- AUC Ratio (with elagolix vs. medication alone) [1, 3]: 0.92
- Cmax Ratio (with elagolix vs. medication alone) [1, 3]: 0.89

SMILES: C[C@H]1O[C@@H](O[C@H]2[C@@H](O)C[C@H](O[C@H]3[C@@H](O)C[C@H](O[C@H]4CC[C@@]5(C)[C@H](CC[C@@H]6[C@@H]5C[C@@H](O)[C@]5(C)[C@@H](C7=CC(=O)OC7)CC[C@]65O)C4)O[C@@H]3C)O[C@@H]2C)C[C@H](O)[C@@H]1O [Digoxin]
- AUC Ratio (with elagolix vs. medication alone) [1, 4]: 1.26
- Cmax Ratio (with elagolix vs. medication alone) [1, 4]: 1.71

SMILES: C#C[C@]1(O)CC[C@H]2[C@@H]3CCc4cc(O)ccc4[C@H]3CC[C@@]21C [Ethinyl Estradiol]
- AUC Ratio (with elagolix vs. medication alone) [1, 3]: 1.30
- Cmax Ratio (with elagolix vs. medication alone) [1, 3]: 1.15

SMILES: Cc1ncc2n1-c1ccc(Cl)cc1C(c1ccccc1F)=NC2 [Midazolam]
- AUC Ratio (with elagolix vs. medication alone) [1, 5]: 0.65
- Cmax Ratio (with elagolix vs. medication alone) [1, 5]: 0.81
- AUC Ratio (with elagolix vs. medication alone) [1, 6]: 0.46
- Cmax Ratio (with elagolix vs. medication alone) [1, 6]: 0.56

SMILES: C#C[C@]1(O)CC[C@H]2[C@@H]3CCC4=CC(=O)CC[C@@H]4[C@H]3CC[C@@]21C [Norethindrone]
- AUC Ratio (with elagolix vs. medication alone) [1, 7]: 0.88
- Cmax Ratio (with elagolix vs. medication alone) [1, 7]: 0.95

SMILES: CC(C)c1nc(N(C)S(C)(=O)=O)nc(-c2ccc(F)cc2)c1/C=C/[C@@H](O)C[C@@H](O)CC(=O)O [Rosuvastatin]
- AUC Ratio (with elagolix vs. medication alone) [1, 8]: 0.60
- Cmax Ratio (with elagolix vs. medication alone) [1, 8]: 0.99

SMILES: COc1cccc(-c2c(C)n(Cc3c(F)cccc3C(F)(F)F)c(=O)n(C[C@H](NCCCC(=O)[O-])c3ccccc3)c2=O)c1F.[Na+] [elagolix sodium, sodium 4-((R)-2-[5-(2-fluoro-3-methoxy-phenyl)-3-(2-fluoro-6-trifluoromethyl-benzyl)-4-methyl-2,6-dioxo-3,6-dihydro-2H-pyrimidin-1-yl]-1-phenyl-ethylamino)butanoate]
- gel formation during dissolution ([2]; 1.23 gram added to 2 mL purified water): started to form gel
- pH value of the solution ([2]; 1.23 gram in 2 mL purified water, undissolved solid present, 20° C.): 9.80
